Test systems include OVCAR-4 ovarian; IGROV1 ovarian; SF-539 CNS; NCI/ADR-RES ovarian; LOX IMVI melanoma; HT29 colon; MDA-MB-435; RPMI-8226 leukemia; UO-31 renal; BT-549 breast.
What all share (assay): inhibition of tumour cell growth, NCI panel, 48 h

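48-hour exposure; five concentrations; linearly interpolated endpoints. Definition used: TGI = concentration required for complete inhibition of growth.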

`CC(C)(C)C1=C(Br)C(O)(C(C)(C)C)OP1(=O)c1ccccc1` (stereo not drawn): the TGI with OVCAR-4 ovarian, in the assay with IGROV1 ovarian, in the assay with SF-539 CNS, in the assay with NCI/ADR-RES ovarian, in the assay with LOX IMVI melanoma and with HT29 colon was greater than 100 µM throughout. Moreover, in the assay on MDA-MB-435, the TGI was greater than 100 µM.

Consider `N#Cc1c(N)nc2c3c1NC(=O)C(C(N)=O)C3c1ccccc1O2` (stereo not drawn), for which the TGI in the assay with OVCAR-4 ovarian is greater than 100 µM; in the assay with IGROV1 ovarian, 79.8 µM; with SF-539 CNS, greater than 100 µM; in the assay on NCI/ADR-RES ovarian, greater than 100 µM; in the assay with RPMI-8226 leukemia, greater than 100 µM; in the assay with LOX IMVI melanoma it was greater than 100 µM. The TGI with HT29 colon, in the assay on MDA-MB-435 and with UO-31 renal was greater than 100 µM in each case.

Take `COc1ccc(Oc2ccccc2N)cc1`: the TGI in the assay on OVCAR-4 ovarian was greater than 100 µM; in the assay on IGROV1 ovarian, greater than 100 µM; with SF-539 CNS it was 57.3 µM; with RPMI-8226 leukemia, greater than 100 µM; in the assay with LOX IMVI melanoma, greater than 100 µM; in the assay on HT29 colon it was greater than 100 µM. For the same molecule, the TGI in the assay on UO-31 renal was greater than 100 µM.

Turning to `CCOC(=O)C1=C(O)c2ccc(C)cc2C(=O)C1=O`, the TGI with OVCAR-4 ovarian, in the assay on IGROV1 ovarian, in the assay with SF-539 CNS, in the assay on RPMI-8226 leukemia, in the assay with LOX IMVI melanoma and in the assay with HT29 colon was greater than 100 µM each time. Also, in the assay with UO-31 renal, the TGI is greater than 100 µM.

On to `Clc1cc(Cl)ncn1`, for which the TGI in the assay on OVCAR-4 ovarian, with IGROV1 ovarian, in the assay with SF-539 CNS, in the assay with NCI/ADR-RES ovarian, in the assay with RPMI-8226 leukemia and in the assay on LOX IMVI melanoma was greater than 100 µM in each case. The TGI in the assay with HT29 colon, with MDA-MB-435 and in the assay on UO-31 renal was greater than 100 µM each time.

Turning to `O=C(N=Nc1ccccc1Cl)NNc1ccccc1Cl`, the TGI is 58.5 µM with OVCAR-4 ovarian; 43.2 µM in the assay with IGROV1 ovarian; 65.6 µM in the assay on RPMI-8226 leukemia; 44.8 µM in the assay with LOX IMVI melanoma; greater than 100 µM with HT29 colon; greater than 100 µM in the assay on MDA-MB-435. The same molecule showed a TGI with UO-31 renal greater than 100 µM.

On to `[N-]=[N+]=NCC(O)Cn1cnc2c(NC(=O)c3ccccc3)ncnc21` (stereo not drawn), for which the TGI with OVCAR-4 ovarian, in the assay with IGROV1 ovarian, with SF-539 CNS, with RPMI-8226 leukemia, in the assay with LOX IMVI melanoma and with HT29 colon was greater than 100 µM each time. Moreover, the TGI with UO-31 renal was greater than 100 µM.

On to `CC1(C)C=C(/C=N/Nc2ccccc2)C(C#N)=C(O)C1(C#N)C#N`, for which the TGI with OVCAR-4 ovarian, in the assay on IGROV1 ovarian, with SF-539 CNS, with NCI/ADR-RES ovarian, with RPMI-8226 leukemia and in the assay with LOX IMVI melanoma was greater than 100 µM each time. Also, the TGI in the assay on HT29 colon, in the assay with MDA-MB-435 and with UO-31 renal was greater than 100 µM in each case.

Consider `Oc1ccc(Oc2cc3c(cc2Oc2ccc(O)cc2)-c2nc-3nc3[nH]c(nc4nc(nc5[nH]c(n2)c2cc(Oc6ccc(O)cc6)c(Oc6ccc(O)cc6)cc52)-c2cc(Oc5ccc(O)cc5)c(Oc5ccc(O)cc5)cc2-4)c2cc(Oc4ccc(O)cc4)c(Oc4ccc(O)cc4)cc32)cc1`, for which the TGI in the assay with OVCAR-4 ovarian, in the assay with IGROV1 ovarian, with SF-539 CNS, in the assay on NCI/ADR-RES ovarian, in the assay with LOX IMVI melanoma and with BT-549 breast was greater than 100 µM each time. The TGI in the assay with HT29 colon, in the assay with MDA-MB-435 and in the assay on UO-31 renal was greater than 100 µM in each case.

In the case of `Nc1c(S(=O)(=O)O)cc(S(=O)(=O)O)c2ccc(N=Nc3ccc(/C=C/c4ccc(N=Nc5ccc6c(S(=O)(=O)O)cc(S(=O)(=O)O)c(N)c6c5O)cc4S(=O)(=O)O)c(S(=O)(=O)O)c3)c(O)c12`, the TGI with OVCAR-4 ovarian, in the assay with IGROV1 ovarian, in the assay on SF-539 CNS, with NCI/ADR-RES ovarian, with RPMI-8226 leukemia and in the assay with LOX IMVI melanoma was greater than 100 µM throughout. Also, the TGI in the assay with HT29 colon and in the assay with UO-31 renal was greater than 100 µM throughout.

Turning to `CC1(C)O[C@@H](C[C@]2(C#N)C[C@H](CCl)OC(C)(C)O2)C[C@@H](C#N)O1`, the TGI in the assay with OVCAR-4 ovarian, with IGROV1 ovarian, in the assay on SF-539 CNS, with RPMI-8226 leukemia, in the assay on LOX IMVI melanoma and in the assay on HT29 colon was greater than 100 µM in each case. The same molecule showed a TGI in the assay with UO-31 renal greater than 100 µM.

Take `N/C(=N\N=C\c1ncccc1O)NO`: the TGI in the assay on OVCAR-4 ovarian was greater than 100 µM; in the assay with IGROV1 ovarian, greater than 100 µM; in the assay with SF-539 CNS, 59.1 µM; with NCI/ADR-RES ovarian, greater than 85.5 µM; with RPMI-8226 leukemia it was greater than 100 µM; with LOX IMVI melanoma it was greater than 100 µM. Also, the TGI with HT29 colon is greater than 100 µM; in the assay on UO-31 renal, greater than 86.2 µM.

Take `CSc1cnc2ccccc2c1Sc1c[nH]c2ccccc2c1=O`: the TGI in the assay on OVCAR-4 ovarian came out at 33 µM; in the assay on IGROV1 ovarian, 43.1 µM; in the assay on SF-539 CNS, 31.1 µM; in the assay with RPMI-8226 leukemia, 64.4 µM; in the assay with LOX IMVI melanoma, 67.2 µM; in the assay on HT29 colon, 15.1 µM. Besides, in the assay on UO-31 renal, the TGI worked out at 45.1 µM.

`COc1cc(N(CCC#N)CCC#N)ccc1/C=N\NC(=O)c1ccc(C)cc1`: the TGI with OVCAR-4 ovarian, in the assay with IGROV1 ovarian, with SF-539 CNS, in the assay on NCI/ADR-RES ovarian, in the assay on LOX IMVI melanoma and in the assay on BT-549 breast was greater than 100 µM each time. For the same molecule, the TGI with HT29 colon and with MDA-MB-435 was greater than 100 µM in each case.

As to `O=C(O)c1cccc(NC(C(=O)c2ccccc2)c2ccccc2)c1` (stereo not drawn), the TGI in the assay with IGROV1 ovarian, in the assay on SF-539 CNS, in the assay with NCI/ADR-RES ovarian, with RPMI-8226 leukemia, with LOX IMVI melanoma and in the assay with MDA-MB-435 was greater than 100 µM throughout. Further, the TGI in the assay with UO-31 renal is greater than 100 µM.

Take `COc1ccc(C)cc(=O)c1O`: the TGI is greater than 100 µM in the assay on OVCAR-4 ovarian; greater than 100 µM in the assay with IGROV1 ovarian; greater than 100 µM with SF-539 CNS; greater than 100 µM with RPMI-8226 leukemia; 79.7 µM with LOX IMVI melanoma; greater than 100 µM with HT29 colon. For the same molecule, in the assay with UO-31 renal, the TGI was greater than 100 µM.

The values above are taken from PubChem BioAssay (NCI).
